{"source": "patent US20150258106A1", "about": "“METHODS FOR ACUTE AND LONG-TERM TREATMENT OF SUBSTANCE ABUSE” (DEMERX, INC., priority 2014, published 2015)", "type_in_all_cases": "in vivo, human", "key": {"[1]": {"system": "healthy, drug-free male volunteers", "experiment": "Safety and tolerability of noribogaine in healthy humans (adverse events, vital signs, ECG)", "description": "(§1) Pulse oximetry and capnography data were collected continuously using a GE Carescape B650 monitoring system from 2 hours prior to dosing and until six hours after dosing, and thereafter at 12, 24, 48 and 72 hours post-dosing. […] Pupillary miosis was assessed by pupillometry.\n(§2) Safety and tolerability of noribogaine were tested in the group of volunteers from Example 1. […] Safety evaluations included clinical monitoring, recording of adverse events (AEs), safety laboratory tests, vital signs, ECG telemetry from −2 h to 6 h after dosing, and 12-lead electrocardiograms (ECGs) up to 216 hours post-dosing."}, "[2]": {"system": "healthy, drug-free male volunteers", "experiment": "Pupillometry (pupillary miosis) in healthy volunteers", "description": "as §1\n(§3) Summary statistics (means, standard deviations, and coefficients of variation) were determined for each dose group for safety laboratory test data, ECG and pharmacokinetic parameters, and pharmacodynamic variables. Categorical variables were analysed using counts and percentages. Dose-proportionality of AUC and Cmax was assessed using linear regression. The effect of dose on pharmacodynamic parameter values over time was assessed using two-factor analysis of variance (ANOVA). Pairwise comparisons (with Tukey-Kramer adjustment) between each dose group to the placebo were conducted at each time point using the least squares estimates obtained from the ANOVA, using SAS Proc Mixed (SAS ver 6.0)."}, "[3]": {"system": "healthy, drug-free male volunteers", "experiment": "Cold pressor test (analgesic effect) in healthy volunteers", "description": "as §3\nAnalgesic effect was assessed based on duration of hand immersion in ice water and on visual analog scale (VAS) pain scores upon hand removal from the water bath.\nas §2"}, "[4]": {"system": "opioid-dependent participants", "experiment": "Time to resumption of opioid substitution treatment (OST) in opioid-dependent participants", "description": "The efficacy of noribogaine in humans was evaluated in opioid-dependent participants in a randomized, placebo-controlled, double-blind trial. […] See U.S. application Ser. No. 14/214,157, filed Mar. 14, 2014 and Ser. No. 14/346,655, filed Mar. 21, 2014, which are incorporated herein by reference in their entireties.\n(§4) Three cohorts of nine (9) subjects (6 administered noribogaine and 3 administered placebo in each cohort) were evaluated for tolerability, pharmacokinetics, and efficacy. Cohort 1 received a single dose of 60 mg noribogaine or placebo. Cohort 2 received a single dose of 120 mg noribogaine or placebo. Cohort 3 received a single dose of 180 mg noribogaine or placebo. […] Headaches were frequent in the placebo and 60 mg noribogaine treatment groups, but were attenuated in the 120 mg and 180 mg dose groups."}, "[5]": {"system": "opioid-dependent participants", "experiment": "Opiate withdrawal scales (COWS, SOWS, OOWS) in opioid-dependent participants", "description": "Patients were evaluated based on the Clinical Opiate Withdrawal Scale (COWS), Subjective Opiate Withdrawal Scale (SOWS), and Objective Opiate Withdrawal Scale (OOWS) scoring systems over the period of time between administration of noribogaine (or placebo) until resumption of OST. These scales are outlined in Guidelines for the Psychosocially Assisted Pharmacological Treatment of Opioid Dependence, World Health Organization, Geneva (2009), Annex 10, which is incorporated herein by reference in its entirety. The scales measure the intensity of withdrawal symptoms, based on clinical, subjective, and objective indicia."}, "[6]": {"experiment": "Pharmacokinetics in opioid-dependent patients (Phase IB study)", "details": "for AUC(0-t) / AUC / half-life / Tmax / Vd/F / Cmax: human, serum, opioid-dependent patients", "description": "as §4"}, "[7]": {"details": "after adjusting for baseline differences, p>0.9"}, "[8]": {"details": "healthy volunteers, 3-60 mg single oral dose"}}, "note": "Entries after “also recorded” stand apart in the source; their conditions may differ. Read-outs that look alike come from different tables or passages of the source."}
{"smiles": "CCC1CC2CC3c4[nH]c5ccc(O)cc5c4CCN(C2)C13", "note": "(stereo not shown) [Noribogaine]", "values": [{"measurement": "adverse events, Mild", "setting": "[1]; healthy volunteers, 3 mg dose", "value": "Back pain; also recorded: Dizziness; also recorded: Epistaxis; also recorded: Headache"}, {"measurement": "adverse events, Moderate", "setting": "[1]; healthy volunteers, 3 mg dose", "value": "Headache"}, {"measurement": "number of adverse events reported", "setting": "[1]; healthy volunteers, 3 mg dose group", "value": "five adverse events were reported by two subjects"}, {"measurement": "adverse events, Mild", "setting": "[1]; healthy volunteers, 10 mg dose", "value": "Headache"}, {"measurement": "number of adverse events reported", "setting": "[1]; healthy volunteers, 10 mg dose group, single subject", "value": "one adverse event"}, {"measurement": "adverse events, Mild", "setting": "[1]; healthy volunteers, 30 mg dose", "value": "Headache"}, {"measurement": "number of adverse events reported", "setting": "[1]; healthy volunteers, 30 mg dose group, single subject", "value": "one adverse event"}, {"measurement": "oximetry, capnography, respiratory rate", "setting": "[1]; healthy volunteers, 3-60 mg", "value": "no changes in oximetry or capnography, or changes in respiratory rate"}, {"measurement": "vital signs and safety laboratory tests", "setting": "[1]; healthy volunteers, 3-60 mg", "value": "no changes in vital signs or safety laboratory tests of note"}, {"measurement": "intensity of adverse events", "setting": "[1]; healthy volunteers, all groups, all resolved prior to study completion", "value": "mild-moderate intensity"}, {"measurement": "QTcF values", "setting": "[1]; healthy volunteers, at any time", "value": "≤ 500", "unit": "ms"}, {"measurement": "single increase in QTcF", "setting": "[1]; one subject dosed with 10 mg, at 24 hours post-dosing", "value": "> 60", "unit": "ms"}, {"measurement": "pupil diameter, each dose group compared with placebo by ANOVA", "setting": "[2]; [7]", "value": "no statistically significant differences"}, {"measurement": "pupillary constriction", "setting": "[2]; [8]", "value": "no evidence of pupillary constriction"}, {"measurement": "VAS pain scores upon hand removal, each dose group compared with placebo by ANOVA", "setting": "[3]; after adjusting for baseline differences, p=0.17", "value": "no statistically significant differences"}, {"measurement": "duration of hand immersion in ice water, each dose group compared with placebo by ANOVA", "setting": "[3]; [7]", "value": "no statistically significant differences"}, {"measurement": "analgesic effect in the cold pressor test", "setting": "[3]; [8]", "value": "no analgesic effect"}, {"measurement": "average time to resumption of opioids", "setting": "[4]; opioid-dependent patients, single 120 mg dose", "value": "greater than 20 hours"}, {"measurement": "Time to resumption of OST compared with untreated patients or 60 mg noribogaine", "setting": "[4]; single 180 mg dose", "value": "longer than untreated patients"}, {"measurement": "withdrawal symptoms (COWS, OOWS, SOWS), first six hours following dosing", "setting": "[5]; opioid-dependent patients, 120 mg", "value": "fewer withdrawal symptoms than the other patients"}, {"measurement": "withdrawal symptoms (COWS, OOWS, SOWS), noribogaine compared with placebo", "setting": "[5]; opioid-dependent patients, 60, 120 or 180 mg", "value": "Patients administered placebo generally experienced more withdrawal symptoms than patients who were administered noribogaine"}, {"measurement": "AUC(0-t)", "setting": "[6]; 60 mg, Cohort 1 (60 mg), mean ± SD, read-out: AUC(0-T)", "value": "2020 ± 614", "unit": "ng·h/mL"}, {"measurement": "AUC", "setting": "[6]; 60 mg, Cohort 1 (60 mg), mean ± SD, read-out: AUC(0-¥)", "value": "2060 ± 609", "unit": "ng·h/mL"}, {"measurement": "half-life", "setting": "[6]; 60 mg, Cohort 1 (60 mg), mean ± SD, read-out: Half-life (converted)", "value": "29.3 ± 7.28", "unit": "h"}, {"measurement": "Tmax", "setting": "[6]; 60 mg, Cohort 1 (60 mg), mean ± SD, read-out: Tmax", "value": "3.59 ± 0.92", "unit": "h"}, {"measurement": "Vd/F", "setting": "[6]; 60 mg, Cohort 1 (60 mg), mean ± SD, read-out: Vd/F", "value": "1440 ± 854", "unit": "L"}, {"measurement": "AUC(0-t)", "setting": "[6]; 60 mg, Cohort 1 (60 mg), range, read-out: AUC(0-T) [range]", "value": "1090 to 2530", "unit": "ng·h/mL"}, {"measurement": "AUC", "setting": "[6]; 60 mg, Cohort 1 (60 mg), range, read-out: AUC(0-¥) [range]", "value": "1120 to 2550", "unit": "ng·h/mL"}, {"measurement": "half-life", "setting": "[6]; 60 mg, Cohort 1 (60 mg), range, read-out: Half-life [range]", "value": "18.3 to 37.3", "unit": "h"}, {"measurement": "Tmax", "setting": "[6]; 60 mg, Cohort 1 (60 mg), range, read-out: Tmax [range]", "value": "2.5 to 5", "unit": "h"}, {"measurement": "Vd/F", "setting": "[6]; 60 mg, Cohort 1 (60 mg), range, read-out: Vd/F [range]", "value": "620 to 2770", "unit": "L"}, {"measurement": "Cmax", "setting": "[6]; 60 mg, Cohort 1 (60 mg), mean ± SD, read-out: Cmax", "value": "81.6 ± 23.8", "unit": "ng/mL"}, {"measurement": "Cmax", "setting": "[6]; 60 mg, Cohort 1 (60 mg), range, read-out: Cmax [range]", "value": "41.3 to 113", "unit": "ng/mL"}, {"measurement": "AUC(0-t)", "setting": "[6]; 120 mg, Cohort 2 (120 mg), mean ± SD, read-out: AUC(0-T)", "value": "3230 ± 1540", "unit": "ng·h/mL"}, {"measurement": "AUC", "setting": "[6]; 120 mg, Cohort 2 (120 mg), mean ± SD, read-out: AUC(0-¥)", "value": "3280 ± 1580", "unit": "ng·h/mL"}, {"measurement": "half-life", "setting": "[6]; 120 mg, Cohort 2 (120 mg), mean ± SD, read-out: Half-life (converted)", "value": "30.4 ± 9.14", "unit": "h"}, {"measurement": "Tmax", "setting": "[6]; 120 mg, Cohort 2 (120 mg), mean ± SD, read-out: Tmax", "value": "2.99 ± 1.23", "unit": "h"}, {"measurement": "Vd/F", "setting": "[6]; 120 mg, Cohort 2 (120 mg), mean ± SD, read-out: Vd/F", "value": "2110 ± 1640", "unit": "L"}, {"measurement": "AUC(0-t)", "setting": "[6]; 120 mg, Cohort 2 (120 mg), range, read-out: AUC(0-T) [range]", "value": "1560 to 5640", "unit": "ng·h/mL"}, {"measurement": "AUC", "setting": "[6]; 120 mg, Cohort 2 (120 mg), range, read-out: AUC(0-¥) [range]", "value": "1600 to 5770", "unit": "ng·h/mL"}, {"measurement": "half-life", "setting": "[6]; 120 mg, Cohort 2 (120 mg), range, read-out: Half-life [range]", "value": "21.9 to 48.3", "unit": "h"}, {"measurement": "Tmax", "setting": "[6]; 120 mg, Cohort 2 (120 mg), range, read-out: Tmax [range]", "value": "0.98 to 4.02", "unit": "h"}, {"measurement": "Vd/F", "setting": "[6]; 120 mg, Cohort 2 (120 mg), range, read-out: Vd/F [range]", "value": "824 to 5240", "unit": "L"}, {"measurement": "Cmax", "setting": "[6]; 120 mg, Cohort 2 (120 mg), mean ± SD, read-out: Cmax", "value": "173 ± 30.7", "unit": "ng/mL"}, {"measurement": "Cmax", "setting": "[6]; 120 mg, Cohort 2 (120 mg), range, read-out: Cmax [range]", "value": "139 to 230", "unit": "ng/mL"}, {"measurement": "AUC(0-t)", "setting": "[6]; 180 mg, Cohort 3 (180 mg), mean ± SD, read-out: AUC(0-T)", "value": "6520 ± 2910", "unit": "ng·h/mL"}, {"measurement": "AUC", "setting": "[6]; 180 mg, Cohort 3 (180 mg), mean ± SD, read-out: AUC(0-¥)", "value": "6890 ± 3490", "unit": "ng·h/mL"}, {"measurement": "half-life", "setting": "[6]; 180 mg, Cohort 3 (180 mg), mean ± SD, read-out: Half-life (converted)", "value": "23.9 ± 5.54", "unit": "h"}, {"measurement": "Tmax", "setting": "[6]; 180 mg, Cohort 3 (180 mg), mean ± SD, read-out: Tmax", "value": "4.41 ± 1.8", "unit": "h"}, {"measurement": "Vd/F", "setting": "[6]; 180 mg, Cohort 3 (180 mg), mean ± SD, read-out: Vd/F", "value": "1030 ± 365", "unit": "L"}, {"measurement": "AUC(0-t)", "setting": "[6]; 180 mg, Cohort 3 (180 mg), range, read-out: AUC(0-T) [range]", "value": "3720 to 10400", "unit": "ng·h/mL"}, {"measurement": "AUC", "setting": "[6]; 180 mg, Cohort 3 (180 mg), range, read-out: AUC(0-¥) [range]", "value": "3730 to 12300", "unit": "ng·h/mL"}, {"measurement": "half-life", "setting": "[6]; 180 mg, Cohort 3 (180 mg), range, read-out: Half-life [range]", "value": "19.3 to 34.9", "unit": "h"}, {"measurement": "Tmax", "setting": "[6]; 180 mg, Cohort 3 (180 mg), range, read-out: Tmax [range]", "value": "3 to 8", "unit": "h"}, {"measurement": "Vd/F", "setting": "[6]; 180 mg, Cohort 3 (180 mg), range, read-out: Vd/F [range]", "value": "581 to 1610", "unit": "L"}, {"measurement": "Cmax", "setting": "[6]; 180 mg, Cohort 3 (180 mg), mean ± SD, read-out: Cmax", "value": "268 ± 46.9", "unit": "ng/mL"}, {"measurement": "Cmax", "setting": "[6]; 180 mg, Cohort 3 (180 mg), range, read-out: Cmax [range]", "value": "205 to 338", "unit": "ng/mL"}, {"measurement": "Maximum serum concentration of noribogaine (Cmax) versus dose", "setting": "[6]; opioid-dependent patients, 60, 120, 180 mg", "value": "increased in a dose-dependent manner"}]}
